Laboratory results taken from PMC8048308, “Lysophosphatidic acid (LPA)-antibody (504B3) engagement detected by interferometry identifies off-target binding” (Lipids in Health and Disease, 2021).
Where “and” joins values, the source holds several entries; their conditions need not be identical. Identical values can stand only once.

Experiments:
anti-LPA antibody, 504B3 = experiment: free solution assay (FSA) measured in a compensated interferometric reader (CIR), equilibrium binding of lipids to antibody; parameters: species or system murine; conditions: 5 μg/ml 504B3, 0–50 nM ligand; for Kd: read-out: KD from FSA ± SD (95% CI); for Bmax (95% CI): one-site specific binding fit of the ΔRI signal
Experimental: The FSA configuration required refractive index (RI)-matched sample and reference solutions (Fig. 2). The binding affinity determinations were done in an end-point assay format. A ligand dilution series (100, 20, 4, 0.8, 0.16, 0.032, and 0 nM) was prepared in 0.01% BSA / 0.002% EtOH/Phosphate buffered saline (PBS; ThermoFisher Scientific, Waltham, MA, USA) from an intermediate stock of 200 nM LPs in 0.01% BSA / 0.002% EtOH/PBS. Lipids were prepared in fatty acid-free BSA solutions to approximate the biological conditions of LPs. Then, each LP dilution was combined with PBS-only to create the reference solution, or 10 μg/ml of the 504B3 antibody in PBS to create the corresponding binding sample solution (Fig. 2). Sample and reference solutions were kept at RT in a shaker for approximately 1-h to reach equilibrium and then analyzed using the CIR. The final concentrations were 5 μg/ml of antibody and 0–50 nM of ligand in a final buffer composition of 0.005% BSA / 0.001% EtOH/PBS. The details of the interferometer instrumentation have been described elsewhere. Briefly, it consists of a diode laser, two mirrors, one glass capillary, and a CCD camera. Droplet trains of sample-reference pairs were maintained at a constant flow rate in the capillary using a droplet generator (Mitos Dropix; Dolomite Microfluidics, (Royston, North Hertfordshire, UK)) and a syringe pump (Harvard Apparatus, Holliston, MA, USA). Together, the interferometer, a syringe pump (at a flow rate of 10 μL/min), and a droplet generator comprise the CIR. The RI change between the binding sample and reference was measured as a positional shift in backscattered interference fringes produced from the interaction between an expanded beam profile of the laser and a capillary filled with sample-reference solutions [24]. The shift of the backscattered fringe patterns, which is equivalent to molecular binding, was quantified using fast Fourier transform of selected fringes captured in a CCD array. The assay was measured sequentially, as reference, then sample for each concentration, as described previously. The concentration dependent signal was plotted using a non-linear regression, one-site specific binding (Y=Bmax*X/(KD + X) + D; where D is the offset value) isotherm fit in GraphPad Prism Version 8 to determine the equilibrium dissociation constants (KDs). […] The sample and reference solutions were prepared by mixing a ligand dilution series (0–100 nM) with an equivalent volume of the 504B3 solution (sample; 10 μg/ml dissolved in PBS, pH 7.4) or PBS only (reference) (Fig. 2).

LPA1 = target: LPA1; parameters: method as in PMID 30463988, PMID 32513900; conditions: CIR; cited from earlier work
[1] = 0.005% BSA / 0.001% EtOH/PBS, about 1 h at RT, one-site specific binding fit

SMILES	KD from FSA ± SD (95% CI) (anti-LPA antibody, 504B3; [1])	Kd (anti-LPA antibody, 504B3; [1])	Bmax (95% CI) (anti-LPA antibody, 504B3)	native equilibrium binding (KD) to LPA1 (LPA1)	specific binding signal (ΔRI) with 504B3 (anti-LPA antibody, 504B3)	specific binding signal (ΔRI) with 504B3 (anti-LPA antibody, 504B3; listed as S1P)
CCCCCCCCCCCCCCCC(=O)OC[C@@H](O)COP(=O)(O)O [16:0 LPA, 1-palmitoyl-LPA (16:0)]	weaker affinity	> 30 nM	0.39 (undetermined^a)	comparable binding		
CCCCCCCC/C=C\CCCCCCCC(=O)OC[C@@H](O)COP(=O)(O)O [18:1 LPA, 1-oleoyl-LPA (18:1)]		3.7 ± 2.8 nM	0.17 (0.14 to 0.25)	comparable binding		
CCCCCCCC/C=C\CCCCCCCC(=O)OC[C@@H](O)COP(=O)([O-])OCC[N+](C)(C)C [18:1 LPC, 1-oleoyl-lysophosphatidylcholine]		~8.5 nM and 8.5 nM	0.14 (0.12 to 0.16)			
CCCCCCCCCCCCC/C=C/[C@@H](O)[C@@H](N)COP(=O)(O)O [18:1 S1P, sphingosine 1-phosphate (d18:1)]					No specific binding signal	no signal
